Viability and IC50 data for 17 compounds are collected here from patent EP1501797B1, “3-(SUBSTITUTED AMINO)-1H-INDOLE-2-CARBOXYLIC ACID ESTER AND 3-(SUBSTITUTED AMINO)-BENZO[B]THIOPHENE-2-CARBOXYLIC ACID ESTER DERIVATIVES AS INTERLEUKIN-4 GENE EXPRESSION INHIBITORS” (Aventis Pharmaceuticals Inc., priority 2002, dated 2003).

A value given as a limit tells only on which side of the number the result lay.

A short description of data set [1]: in vitro. Conditions: mouse, swiss 3t3 fibroblasts. As for the experimental part: A third assay utilized in the present invention involves an in vitro cytotoxicity assay. This assay is used to further characterize the compounds in order to assess toxic activities of compounds on contact inhibited, non-dividing 3T3 fibroblasts. Other toxicity assays may be used.
Contact inhibited Swiss 3T3 fibroblasts are purchased from ATCC. The cells are maintained in 1640 RPMI supplemented with 10% fetal bovine serum (Gibco).
On day of assay, cells are detached from flasks by trypsinization, washed in medium and counted. 100 microliters of 2.5 x 10^4 cells per well are plated into Falcon brand 96 well tissue culture plates and cells incubated at 37°C in presence of 5% CO2 for 2 days or until confluent.
[…] All compound dilutions are assayed in triplicate. […] Cells are returned to the incubator for 2 days.
After 2 day incubation, the 3T3 cells are assayed for viability using an MTS Assay Kit (Promega). Media is added to blank wells for background calculations. After 2 hours incubation in kit reagent, the optical density at 490 nm for each compound and control is determined by plate reader.
Results are expressed as percent cytotoxicity, i.e., (mean OD of compound wells - background OD)/ (mean OD of controls - background).
Note that starting concentration of CsA was 1 µM. […]

Data set [2] concerns IL-5. As to the kind of experiment: Human primary Th2 cells, anti-CD3/anti-CD28 activated, IL-5 ELISA. It counts as cell-based. To be noted: human primary Th2 cells, anti-CD3 and anti-CD28 (Table 5). As for the experimental part: (§1) Briefly, CD4^+CD45RA^+ T cells, isolated from donor peripheral blood mononuclear cells of healthy donors, are educated in the presence of anti-CD3/CD28 antibodies and various growth factors to obtain either a Thl-like or Th2-like phenotypes as determined by the known cytokine profiles of these two cell types.
(§2) Peripheral blood mononuclear cells (PBMC) are prepared from human blood by Ficoll-Hypacque (Pharmacia). The cells are washed two times in Hanks balanced salt solution (HBSS) and counted.
(§3) Naive T cells (CD4^+/CD45RA ) are prepared by negative selection method using following antibodies and Dynabeads: anti-CD8, anti-HLA-DR, (where HLA means human leucocyte antigen) anti-CD14, anti-CD16, anti-CD19, anti-CD45RO antibodies (all from R&D Systems, 1-2 µg/ml) are added to the cells, and the cells are kept on ice for 30 min. The cells are washed two times in HBSS, and goat anti- mouse Ig-beads, (bead:target ratio, 5:1) are added. The cells and beads are slowly rotated at 4°C for 20 min. (following the protocol supplied from Dynal). The supernatant is removed and fresh goat anti-mouse Ig-beads are added to the supernatant, which is slowly rotated at 4°C for 20 min. The cells are counted and phenotypically characterized by flow cytometric analysis.
(§4) CD4^+/CD45RA^+ cells at a density of 10^6/ml in RPMI, is prepared and added to RPMI medium containing 10% Hyclone serum/ glutamine and 1-2 µg/ml anti-CD28 Ab. The cells are split in two aliquots. For Th1 cells: anti-IL-4 Ab (1-2 µg/ml), IFN-γ (1 µg/ml, or 5000 units/ml) are added to the wells. For Th2 cells: IL-4 (100-200 ng/ml), anti-IFN-γ neutralizing Ab (1-2 µg/ml), anti-IL-12 neutralizing Ab (1-2 µg/ml) are added into the wells. […] The cells are transferred to fresh wells and grown in 200 units/ml IL-2 for 2 weeks by feeding them every other day with IL-2 containing medium and splitting the cultures 1:2 or 1:3 as needed. The degree of polarization is determined by intracellular staining of cells with anti-IFN-γ and anti-IL-4 antibodies from Pharmingen, and using flow cytometry from Becton Dickinson (BD), according to manufacturers description. The cells are stimulated with PHA and alloantigens at day 14 and 28 as described below. Eight days after the second allostimulation the cells can be used for compound screening or frozen for future use. For compound testing, large quantities of Th1 and Th2 cells derived from a given donor (NYTh1 and NYTh2) were expanded and frozen as aliquots in liquid nitrogen. The cells are thawed and cultured as and when needed. The thawed cells are stimulated with alloantigen/PHA combination. The cells are used for compound screening after 8-10 days in culture.
(§5) Re-stimulation by allogeneic cells: Human PBMCs, to be used as alloantigens, are isolated from freshly drawn blood by Ficoll separation. […] Cells are counted and diluted to a final concentration of 2 x 10^6/ml in medium containing 10 µg/ml PHA and 200 units/ml IL-2.
(§6) Ninetysix well Falcon tissue culture plates (Fisher Scientific) are coated with 100 microliters per well of 10 µg/ml anti-CD3 (PharMingen) antibody in phosphate buffered saline (PBS) and stored at 4°C one day before the experiment.
(§7) On the day of assay, anti-CD3 antibody coated plates are washed with PBS once to remove all soluble anti-CD3 antibody. […] All compounds and controls are assayed in triplicates.
For orientation: An ELISA detects its analyte on a solid surface through an enzyme-linked reagent.

Data set [3] relates to IL-4. The experiment in a line: Human primary Th2 cells, anti-CD3/anti-CD28 activated, IL-4 ELISA. It counts as cell-based. Conditions: human primary Th2 cells, anti-CD3 and anti-CD28 (Table 5). As for the experimental part: as §1, §2, §3, §4, §5, §6, §7
In data set [4] the test system is IL-13. The experiment in a line: Human primary Th2 cells, anti-CD3/anti-CD28 activated, IL-13 ELISA. In kind it is cell-based. To be noted: human primary Th2 cells, anti-CD3 and anti-CD28 (Table 5). As for the experimental part: as §1, §2, §3, §4, §5, §6, §7
Data set [5] has as its system Human Th2 cells. As to the kind of experiment: Human primary Th2 cells, proliferation (viability, MTS assay). In kind it is cell-based. Conditions: human primary Th2 cells, anti-CD3 and anti-CD28 (Table 5); read-out: Prolif. IC50. As to the method:
as §1, §2, §3, §4, §5, §6, §7
(Formazan colour is commonly taken as a measure of viable cells.)

For data set [6], the system named is IFN-γ. As to the kind of experiment: Human primary Th2 cells, anti-CD3/anti-CD28 activated, IFN-γ ELISA. It counts as cell-based. Conditions: human primary Th2 cells, anti-CD3 and anti-CD28 (Table 5). As for the experimental part:
as §1, §2, §3, §4, §5, §6, §7

In the case of `C[C@@H]1C[C@H]2[C@@H]3CCC4=CC(=O)C=C[C@]4(C)[C@@]3(F)[C@@H](O)C[C@]2(C)[C@@]1(O)C(=O)CO` [Dexamethasone], in data set [1], the viability at 48 h, 0.001 µM came out at 100%; the viability at 48 h, 0.003 µM stood at 77.9%; the viability at 48 h, 0.01 µM is 71.6%; the viability at 48 h, 0.03 µM amounted to 67.8%. In data set [1], the viability at 48 h, 0.1 µM is 64.2%; the viability at 48 h, 3 µM turned out to be 60.7%; the viability at 48 h, 10 µM came out at 60.5%.
Regarding `CCOC(=O)c1[nH]c2ccccc2c1Nc1ccncc1` [Example 11, 3-(4-pyridinylamino)-1H-indole-2-carboxylic acid, ethyl ester], the half-inhibitory concentration (IC50) in data set [2], in data set [3], in data set [4], in data set [5] and in data set [6] was greater than 10 µM in each case.
Take `CN(C)CCOC(=O)c1[nH]c2cc(Cl)ccc2c1NC(=O)c1ccccc1` [Example 79, 3-((Benzoyl)amino)-6-chloro-1H-indole-2-carboxylic acid 2-dimethylamino-ethyl ester]: the IC50 in data set [2] was greater than 10 µM; in data set [3], 5 µM; in data set [4], greater than 10 µM; in data set [5], greater than 10 µM; in data set [6], greater than 10 µM.
Regarding `CCOC(=O)c1[nH]c2cc(Cl)cc(Cl)c2c1N(Cc1ccccc1)C(=O)c1ccccc1` [Example 89, 3-((Benzoyl)benzylamino)-4,6-dichloro-1H-indole-2-carboxylic acid ethyl ester], the half-inhibitory concentration (IC50) in data set [2] is 8 µM; in data set [3] it was 2.5 µM; in data set [4] it was greater than 10 µM; in data set [5], 4 µM; in data set [6], greater than 10 µM.
Take `CCOC(=O)c1[nH]c2cc(Cl)cc(Cl)c2c1NS(=O)(=O)c1ccccc1` [Example 90, 3-((Phenylsulfonyl)amino)-4,6-dichloro-1H-indole-2-carboxylic acid ethyl ester]: the half-maximal inhibitory concentration (IC50) in data set [2] is greater than 10 µM; in data set [3], 1 µM; in data set [4], greater than 10 µM; in data set [5] it was greater than 10 µM; in data set [6] it was greater than 10 µM.
For `CN(Cc1cnc2nc(N)nc(N)c2n1)c1ccc(C(=O)N[C@@H](CCC(=O)O)C(=O)O)cc1` [Methotrexate], in data set [1], the viability at 48 h, 0.001 µM stood at 113%; the viability at 48 h, 0.003 µM came to 105%; the viability at 48 h, 0.01 µM was determined as 103%; the viability at 48 h, 0.03 µM came to 100%. In data set [1], the viability at 48 h, 0.1 µM was found to be 98.9%; the viability at 48 h, 3 µM worked out at 93.8%; the viability at 48 h, 10 µM came out at 92.4%.
With `CCOC(=O)c1c(Nc2ccncc2)c2ccccc2n1C` [Reference Example 24A, 1-Methyl-3-(4-pyridinylamino)-1H-indole-2-carboxylic ethyl ester], the half-inhibitory concentration (IC50) in data set [2] was greater than 10 µM; in data set [3], 2 µM; in data set [4], greater than 10 µM; in data set [5] it was greater than 10 µM; in data set [6], greater than 10 µM.
`CN(C(=O)CCc1ccccc1)c1c(C(=O)O)[nH]c2cc(Cl)ccc12` [Reference Example 76, 3-((3-Phenylpropanoyl)methylamino)-1H-6-chloro-indole-2-carboxylic acid]: the IC50 is greater than 10 µM in data set [2]; 4 µM in data set [3]; greater than 10 µM in data set [4]; greater than 10 µM in data set [5]; greater than 10 µM in data set [6].
Take `CN(C(=O)c1ccccc1)c1c(C(=O)O)[nH]c2cc(Cl)cc(Cl)c12` [Reference Example 77, 3-((Benzoyl)methylamino)-4,6-dichloro-1H-indole-2-carboxylic acid]: the half-inhibitory concentration (IC50) in data set [2] was greater than 10 µM; in data set [3], 3.6 µM; in data set [4] it was greater than 10 µM; in data set [5], greater than 10 µM; in data set [6], greater than 10 µM.
`O=C(Nc1c(C(=O)O)[nH]c2cc(Cl)ccc12)c1ccccc1` [Reference Example 78, 3-((Benzoyl)amino)-6-chloro-1H-indole-2-carboxylic acid]: the IC50 in data set [2] was greater than 10 µM; in data set [3] it was 0.3 µM; in data set [4], greater than 10 µM; in data set [5], greater than 10 µM; in data set [6], greater than 10 µM.
As to `CN(C(=O)c1ccc(Cl)cc1)c1c(C(=O)O)[nH]c2cc(Cl)cc(Cl)c12` [Reference Example 80, 3-((4-chlorobenzoyl)methylamino)-4,6-dichloro-1H-indole-2-carboxylic acid], the IC50 in data set [2] is greater than 10 µM; in data set [3], 6 µM; in data set [4], greater than 10 µM; in data set [5] it was greater than 10 µM; in data set [6], greater than 10 µM.
On to `O=C(O)c1[nH]c2cc(Cl)cc(Cl)c2c1N(Cc1ccccc1)C(=O)c1ccccc1` [Reference Example 81, 3-((Benzoyl)benzylamino)-4,6-dichloro-1H-indole-2-carboxylic acid], for which the half-maximal inhibitory concentration (IC50) was 7 µM in data set [2]; 6 µM in data set [3]; greater than 10 µM in data set [4]; greater than 10 µM in data set [5]; 9.5 µM in data set [6].
`CN(C(=O)c1ccccc1)c1c(C(=O)O)[nH]c2cc(Cl)c(Cl)cc12` [Reference Example 84, 3-((Benzoyl)methylamino)-5,6-dichloro-1H-indole-2-carboxylic acid]: the 50% inhibitory concentration (IC50) in data set [2] is greater than 10 µM; in data set [3] it was 1 µM; in data set [4], greater than 10 µM; in data set [5] it was greater than 10 µM; in data set [6], greater than 10 µM.
For the compound `CCN(C(=O)c1ccccc1)c1c(C(=O)O)[nH]c2cc(Cl)cc(Cl)c12` [Reference Example 85, 3-((Benzoyl)ethlamino)-4,6-dichloro-1H-indole-2-carboxylic acid], the IC50 in data set [2] is greater than 10 µM; in data set [3], 0.9 µM; in data set [4] it was greater than 10 µM; in data set [5], greater than 10 µM; in data set [6], greater than 10 µM.
Regarding `CN(C(=O)c1ccccc1)c1c(C(=O)O)[nH]c2cc(F)ccc12` [Reference Example 86, 3-((Benzoyl)methylamino)-6-fluoro-1H-indole-2-carboxylic acid], the half-inhibitory concentration (IC50) in data set [2] was greater than 10 µM; in data set [3] it was 1 µM; in data set [4] it was greater than 10 µM; in data set [5], greater than 10 µM; in data set [6], greater than 10 µM.
In the case of `O=C(Nc1c(C(=O)O)[nH]c2cc(Cl)cc(Cl)c12)c1ccccc1Cc1ccccc1` [Reference Example 87, 3-((2-Benzylbenzoyl)amino)-4,6-dichloro-1H-indole-2-carboxylic acid], the IC50 in data set [2] was 2 µM; in data set [3], 0.6 µM; in data set [4], greater than 10 µM; in data set [5] it was greater than 10 µM; in data set [6], greater than 10 µM.
Take `CN(C(=O)c1cccc(F)c1)c1c(C(=O)O)[nH]c2cc(Cl)cc(Cl)c12` [Reference Example 88, 3-((3-Fluorobenzoyl)methylamino)-4,6-dichloro-1H-indole-2-carboxylic acid]: the IC50 is greater than 10 µM in data set [2]; 2.5 µM in data set [3]; greater than 10 µM in data set [4]; greater than 10 µM in data set [5]; greater than 10 µM in data set [6].

Broadly, the viability is a read-out of living cells in per cent, often relative to untreated cells. Broadly, the IC50 is the midpoint of a concentration-inhibition curve.
